Read-outs that look alike come from different tables or passages of the source.

Here are results for nine compounds from patent publication US8148391B2 (Cephalon, Inc., priority 2006, dated 2012).

Test [1] deals with T1, c-Met (cytoplasmic domain) (Homo sapiens, UniProt P08581).
T1 construct: 10 ng/mL c-Met (cytoplasmic domain, Invitrogen Corporation #PV3143); purchased Invitrogen Corporation PV3143
Put plainly: c-Met Kinase Assay (same methods as for ALK, with modifications). It is filed as biochemical. Summed up:
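This plate-based kinase format uses immobilized phospholipase C-γ as substrate, phosphorylated by c-Met cytoplasmic domain (10 ng/mL) at 37° C for 15 minutes.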

Test [2] has as its target T2, baculovirus-expressed ALK (Homo sapiens, UniProt Q9UM73).
T2 construct: host or cells: baculovirus expression system
In words: ALK Kinase Assay (ELISA-type, time-resolved fluorescence). Type of test: biochemical. Summed up:
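Substrate coating: phospholipase C-γ, 10 μg/mL in TBS. Kinase step: 30 ng/ml ALK, 15 min, 37° C. Detection and analysis: Eu-N1 PT66 antibody, with IC50 fitted as a sigmoidal variable-slope dose-response curve.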
A general note: ELISA stands for enzyme-linked immunosorbent assay.

[3] abbreviates: 1 μM ATP (Km level), read-out: cMet Activity (c-Met Kinase Inhibition, IC50).
Setting [4] is: 1 μM ATP (Km level), read-out: ALK Activity (ALK Kinase Inhibition, IC50).
[5] abbreviates: c-Met kinase inhibition, 1 μM ATP, read-out: cMet Activity.
Setting [6] is: ALK kinase inhibition, 1 μM ATP, read-out: ALK Activity.
[7] abbreviates: c-Met kinase inhibition, 1 μM ATP (Km level), read-out: cMet Activity.
Setting [8] is: ALK kinase inhibition, 1 μM ATP (Km level), read-out: ALK Activity.

T2 sequence (Q9UM73 19-1620): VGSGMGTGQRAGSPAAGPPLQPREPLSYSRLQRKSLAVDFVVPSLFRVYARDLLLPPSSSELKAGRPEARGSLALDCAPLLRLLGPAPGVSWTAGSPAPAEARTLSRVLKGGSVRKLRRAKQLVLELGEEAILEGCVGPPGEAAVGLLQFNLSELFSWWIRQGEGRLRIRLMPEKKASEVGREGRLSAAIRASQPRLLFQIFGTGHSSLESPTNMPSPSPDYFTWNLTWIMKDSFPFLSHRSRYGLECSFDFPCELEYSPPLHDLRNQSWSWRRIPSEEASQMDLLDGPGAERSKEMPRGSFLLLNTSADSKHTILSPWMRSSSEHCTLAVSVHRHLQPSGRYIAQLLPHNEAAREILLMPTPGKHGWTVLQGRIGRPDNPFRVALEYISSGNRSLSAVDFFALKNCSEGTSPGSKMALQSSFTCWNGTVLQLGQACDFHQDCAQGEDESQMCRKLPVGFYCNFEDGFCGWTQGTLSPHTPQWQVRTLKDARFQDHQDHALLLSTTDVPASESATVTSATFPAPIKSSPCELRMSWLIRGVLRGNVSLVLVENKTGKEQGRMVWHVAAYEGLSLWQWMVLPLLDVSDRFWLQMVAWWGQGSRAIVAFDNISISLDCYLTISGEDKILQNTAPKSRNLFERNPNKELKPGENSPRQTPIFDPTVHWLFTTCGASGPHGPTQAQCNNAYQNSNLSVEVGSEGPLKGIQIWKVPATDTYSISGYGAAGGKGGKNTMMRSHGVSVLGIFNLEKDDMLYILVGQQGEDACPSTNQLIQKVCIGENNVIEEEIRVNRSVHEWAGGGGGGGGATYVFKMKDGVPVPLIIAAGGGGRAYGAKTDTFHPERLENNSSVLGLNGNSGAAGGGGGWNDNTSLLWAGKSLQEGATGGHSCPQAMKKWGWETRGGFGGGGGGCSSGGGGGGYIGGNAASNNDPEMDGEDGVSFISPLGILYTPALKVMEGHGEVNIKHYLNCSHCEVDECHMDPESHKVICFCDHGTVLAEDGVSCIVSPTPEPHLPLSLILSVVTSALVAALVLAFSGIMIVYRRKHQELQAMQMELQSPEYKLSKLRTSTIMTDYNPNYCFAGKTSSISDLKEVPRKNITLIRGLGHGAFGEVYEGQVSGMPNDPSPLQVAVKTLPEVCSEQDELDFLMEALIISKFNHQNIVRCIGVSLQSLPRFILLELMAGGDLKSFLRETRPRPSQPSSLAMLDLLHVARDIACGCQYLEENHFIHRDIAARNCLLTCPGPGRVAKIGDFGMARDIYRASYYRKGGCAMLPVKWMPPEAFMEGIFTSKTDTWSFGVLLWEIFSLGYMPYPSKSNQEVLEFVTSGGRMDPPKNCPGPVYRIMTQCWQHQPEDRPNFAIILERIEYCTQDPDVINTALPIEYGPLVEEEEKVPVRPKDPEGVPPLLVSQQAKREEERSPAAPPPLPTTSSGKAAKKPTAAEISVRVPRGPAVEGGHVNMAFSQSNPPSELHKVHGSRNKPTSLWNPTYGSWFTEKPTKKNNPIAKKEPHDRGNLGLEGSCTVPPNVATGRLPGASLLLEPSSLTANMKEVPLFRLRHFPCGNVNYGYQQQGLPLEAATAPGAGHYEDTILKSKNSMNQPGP
T1 sequence (P08581 956-1390 limits assumed): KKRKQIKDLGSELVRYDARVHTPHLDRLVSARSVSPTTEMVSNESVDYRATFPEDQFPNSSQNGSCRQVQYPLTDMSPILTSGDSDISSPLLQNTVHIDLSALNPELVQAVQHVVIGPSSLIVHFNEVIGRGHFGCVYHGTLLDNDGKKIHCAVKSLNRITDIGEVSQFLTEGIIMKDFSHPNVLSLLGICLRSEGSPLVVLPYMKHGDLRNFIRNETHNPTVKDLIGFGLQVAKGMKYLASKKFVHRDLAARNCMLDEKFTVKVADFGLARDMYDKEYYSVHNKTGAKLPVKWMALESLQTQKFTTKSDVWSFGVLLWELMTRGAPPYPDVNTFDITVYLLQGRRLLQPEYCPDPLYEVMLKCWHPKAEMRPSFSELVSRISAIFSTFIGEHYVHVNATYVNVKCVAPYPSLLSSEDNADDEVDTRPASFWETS

Regarding `COc1cc2c(cc1Nc1ncc(Cl)c(Nc3ccc(F)cc3S(=O)(=O)N(C)C)n1)CCN(CC(=O)N(C)C)CC2` [Example 831, 2-{7-[5-Chloro-4-(2-dimethylsulfamoyl-4-fluoro-phenylamino)-pyrimidin-2-ylamino]-8-methoxy-1,2,4,5-tetrahydro-benzo[d]azepin-3-yl}-N,N-dimethyl-acetamide], the IC50 is over 10000 nM in test [1] (setting [3]) and under 100 nM in test [2] (setting [4]).
Turning to `CN1C(=O)OCCc2cc(Nc3ncc(Cl)c(Nc4c(F)cccc4OC4CCOC4)n3)ccc21` (stereo not drawn) [Example 1300, 2-{5-Chloro-4-[2-fluoro-6-(tetrahydro-furan-3-yloxy)-phenylamino]-pyrimidin-2-ylamino}-5-methyl-8,9-dihydro-5H-7-oxa-5-aza-benzocyclohepten-6-one], the IC50 in test [1] (1 μM ATP (Km level), 10 ng/mL c-Met, read-out: cMet Activity (c-Met kinase inhibition, IC50 class)) was under 100 nM; in test [2] (1 μM ATP (Km level), 30 ng/ml ALK, 37° C., 15 minutes, read-out: ALK Activity (ALK kinase inhibition, IC50 class)), 100 to 1000 nM.
As for `COCCN1CCOc2ccc(Nc3ncc(Cl)c(N[C@@H]4CCCC[C@H]4NS(C)(=O)=O)n3)cc2C1` [Example 711, N-((1R,2R)-2-{5-Chloro-2-[4-(2-methoxy-ethyl)-2,3,4,5-tetrahydro-benzo[f][1,4]oxazepin-7-ylamino]-pyrimidin-4-ylamino}-cyclohexyl)methanesulfonamide], the IC50 was 100 to 1000 nM in test [1] (setting [3]) and under 100 nM in test [2] (setting [4]).
On to `CNCc1ccccc1Nc1nc(Nc2ccc3c(c2)CN(C)C(=O)CC3)ncc1Cl` [Example 1808, 8-[5-Chloro-4-(2-methylaminomethyl-phenylamino)-pyrimidin-2-ylamino]-2-methyl-1,2,4,5-tetrahydro-benzo[c]azepin-3-one], for which the IC50 was under 100 nM in test [1] (setting [5]) and 1000 to 10000 nM in test [2] (setting [6]).
Regarding `COc1cc2c(cc1Nc1ncc(Cl)c(Nc3ccc(N(C)C)cc3-n3cccn3)n1)CCN(CC(=O)N(C)C)CC2` [Example 631, 2-{7-[5-Chloro-4-(4-dimethylamino-2-pyrazol-1-yl-phenylamino)-pyrimidin-2-ylamino]-8-methoxy-1,2,4,5-tetrahydro-benzo[d]azepin-3-yl}-N,N-dimethyl-acetamide], the IC50 was over 10000 nM in test [1] (setting [3]) and under 100 nM in test [2] (setting [4]).
For the compound `NC(=O)C1C2CCC(C2)C1Nc1nc(Nc2ccc3c(c2)CCN(CC(O)C(F)(F)F)CC3)ncc1Cl` [Example 331, (2-exo,3-exo)-3-{5-Chloro-2-[3-((S)-3,3,3-trifluoro-2-hydroxy-propyl)-2,3,4,5-tetrahydro-1H-benzo[d]azepin-7-ylamino]-pyrimidin-4-ylamino}-bicyclo[2.2.1]heptane-2-carboxylic acid amide], the results for the IC50 in test [1] (setting [7]) and in test [2] (setting [8]) were 100 to 1000 nM and under 100 nM, respectively.
For the compound `CNS(=O)(=O)c1ccccc1Nc1nc(Nc2ccc3c(c2)C2CCC3CN(C(C)=O)C2)ncc1Cl` (stereo not drawn) [Example 289, 2-[2-(10-Acetyl-10-aza-tricyclo[6.3.2.0*2,7*]trideca-2,4,6-trien-4-ylamino)-5-chloro-pyrimidin-4-ylamino]-N-methyl-benzenesulfonamide], the IC50 is 100 to 1000 nM in test [1] (setting [7]) and under 100 nM in test [2] (setting [8]).
For `CCN1C(=O)CCC(C)(C)c2ccc(Nc3ncc(Cl)c(Nc4ccsc4C(=O)NC)n3)cc21` [Example 1597, 3-[5-Chloro-2-(1-ethyl-5,5-dimethyl-2-oxo-2,3,4,5-tetrahydro-1H-benzo[b]azepin-8-ylamino)-pyrimidin-4-ylamino]-thiophene-2-carboxylic acid methylamide], the IC50 in test [1] (setting [5]) and in test [2] (setting [6]) was 1000 to 10000 nM each time.
For the compound `C#CCNC(=O)c1cccc(F)c1Nc1nc(Nc2ccc3c(c2)OCCCN3C(=O)CN2CCCC2)ncc1Cl` [Example 1716, 2-{5-Chloro-2-[9-(2-pyrrolidin-1-yl-acetyl)-6,7,8,9-tetrahydro-5-oxa-9-aza-benzocyclohepten-3-ylamino]-pyrimidin-4-ylamino}-3-fluoro-N-prop-2-ynyl-benzamide], the IC50 in test [1] (setting [5]) is under 100 nM; in test [2] (setting [6]), 100 to 1000 nM.
